The text below walks through data of patent US20230295133A1, “PROCESS FOR PREPARING A COMPOUND USEFUL TO TREAT MYCOSES” (PULMOCIDE LIMITED, priority 2014, published 2023).

For data set [1], the system named is aspergillus fumigatus infection of BEAS2B cells. Put plainly: Aspergillus fumigatus infection of bronchial epithelial cells (GM in supernatant). The data set is classed as cell-based. Particulars: bronchial epithelial cells infected with Aspergillus fumigatus; read-out: MIC50 Infection of BEAS2B cells. Here is the method: BEAS2B cells were seeded in 96-well plates (100 µL; 30,000 cells / well; Catalogue No 3596, Sigma Aldrich, Dorset, UK) in 10% FBS RPMI-1640 and were then incubated (37° C., 5% CO2) for one day before experimentation. Test compounds (0.5 µL DMSO solution) or vehicle (DMSO) were added to each well to give a final DMSO concentration of 0.5%. BEAS2B cells were incubated with test compounds for 1 hr (35° C., 5% CO2) before infection with aspergillus fumigatus (20 µL; Public Health England) conidia suspension (0.5×10^5 /ml in 10% FBS RPMI-1640). The plate was incubated for 24 hr (35° C., 5% CO2). Supernatant (50 µL) was collected and transferred to a PCR plate (Catalogue No L1402-9700, Starlab, Milton Keynes, UK), which was frozen (-20° C.) until use. After thawing, supernatant (5 µL) was diluted 1:20 by adding R7-PBS solution (95 µL; 1:4 R7 to PBS; Bio-Rad Laboratories, Redmond, WA, USA). GM levels in these samples (50 µL) were measured using Platelia GM-EIA kits (Bio-Rad Laboratories, Redmond, WA, USA). The percentage inhibition for each well was calculated and the IC50 value was calculated from the concentration-response curve generated for each test compound.

Data set [2] has as its system Aspergillus fumigatus L98H (TR34/L98H). Put plainly: Broth microdilution assay (modified EUCAST). The data set is classed as cell-based. The note with it: Aspergillus fumigatus, read-out: MIC75 against Aspergillus fumigatus isolate L98H. The method, then:
(§1) This assay was conducted using a modified method published by EUCAST (Rodriguez-Tudela et al., 2008). Spores of aspergillus fumigatus (NCPF2010, NCPF7010 (Methionine 220 mutation), NCPF7099 (Glycine G54 mutation) from Public Health England, Wiltshire; TR34/L98H mutants from St Louis Hospital, Paris, France) were cultured in Sabouraud dextrose agar for 3 days. A stock spore suspension was prepared from a Sabouraud dextrose agar culture by washing with PBS-tween (10 mL; PBS containing 0.05% Tween-20, 100 U/mL Penicillin and 100 U/mL Streptomycin). The spore count was assessed using a Neubauer haemocytometer and then adjusted to 10^6 spores/mL with PBS. A working suspension of spores (2 × 10^5 spores/mL) was prepared in filter sterilised, BSA MOPS RPMI-1640 (50 mL; RPMI-1640 containing 2 mM L-glutamine, 0.5% BSA, 2% glucose, 0.165 M MOPS, buffered to pH 7 with NaOH). For the assay, BSA MOPS RPMI-1640 (50 µL/well) was added throughout the 384-well plate (Catalogue number 353962, BD Falcon, Oxford, UK) first. Test compounds (0.5 µL DMSO solution) were then added in quadruplicate using an Integra VIAFLO 96 (Integra, Zizers, Switzerland), and mixed well using a plate mixer. Subsequently 50 µL of the working spore suspension prepared above was added to all wells except non-spore control wells. For non-spore control wells, BSA MOPS-RPMI solution (50 µL/well) was added instead. The plate was covered with a plastic lid, and incubated (35° C. with ambient air) for 48 hr. The OD of each well at 530 nm was determined using a multi-scanner (Clariostar: BMG, Buckinghamshire, UK). The percentage inhibition for each well was calculated and the MIC50, MIC75 and MIC90 values were calculated from the concentration-response curve generated for each test compound.
(In general: Broth dilution looks for growth in wells or tubes with falling amounts of substance.)

Data set [3] relates to Aspergillus fumigatus NCPF7099. Kind of data set: Broth microdilution assay (modified EUCAST). It counts as cell-based. Particulars: Aspergillus fumigatus, NCPF7099, n = 3, read-out: MIC75 against Aspergillus fumigatus isolate NCPF7099. The method, then: as §1
Data set [4] deals with Aspergillus fumigatus NCPF2010. Kind of data set: Broth microdilution assay (modified EUCAST). The data set is classed as cell-based. The note with it: Aspergillus fumigatus, NCPF2010, read-out: MIC75 against Aspergillus fumigatus isolate NCPF2010. Here is the method:
as §1

Data set [5] can be described thus: Cell viability: resazurin assay. It counts as cell-based, human. Particulars: human, BEAS2B cells; n = 3-5. Here is the method: BEAS2B cells were seeded in 384-well plates (100 µL; 3000 / well /; BD Falcon, Catalogue No 353962) in RPMI-LHC8 (RPMI-1640 and LHC8 media combined in equal proportions) one day before experimentation. For cell-free control wells, RPMI-LHC8 (100 µL) was added. Test compounds (0.5 µL of a DMSO solution) were added to give a final DMSO concentration of 0.5% using an Integra VIAFLO 96 (Integra, Zizers, Switzerland). BEAS2B cells were incubated with each test compound for 1 day (37° C. / 5% CO2 in RPMI-LHC8). After addition of resazurin stock solution (5 µL, 0.04%) the plates were incubated for a further 4 hr (37° C. / 5% CO2). The fluorescence of each well at 545 nm (excitation) and 590 nm (emission) was determined using a multi-scanner (Clariostar: BMG Labtech). The percentage loss of cell viability was calculated for each well relative to vehicle (0.5% DMSO) treatment. Where appropriate, a CC50 value was calculated from the concentration-response curve generated from the concentration-response curve for each test compound.

Data set [6] deals with Aspergillus fumigatus NCPF7100. Put plainly: Broth microdilution assay (modified EUCAST). It counts as cell-based. The note with it: Aspergillus fumigatus, NCPF7100, read-out: MIC75 against Aspergillus fumigatus isolate NCPF7100.

Converted amounts (≈) assume the structure as drawn.

For the compound `CNS(=O)(=O)c1ccc(NC(=O)c2ccc(N3CCN(c4ccc(OC[C@@H]5CO[C@@](Cn6cncn6)(c6ccc(F)cc6F)C5)c(C)c4)CC3)cc2)cc1` [Example 20, 4-(4-(4-(((3R, 5R)-5-((1H-1,2,4-triazol-1-yl)methyl)-5-(2,4-difluorophenyl)tetrahydrofuran-3-yl)methoxy)-3-methylphenyl)piperazin-1-yl)-N-(4-(N-methylsulfamoyl)phenyl)benzamide], the MIC50 (commonly an inhibitory concentration at the 50% level, which refers to growth in some studies and to a panel of isolates in others) in data set [1] stood at 0.0361 µM (≈ 0.0274 µg/mL). Besides, the MIC in data set [2] came out at 0.0461 µM (≈ 0.0349 µg/mL); in data set [3] it was 0.0111 µM (≈ 0.00841 µg/mL); in data set [4] it was 0.0188 µM (≈ 0.0142 µg/mL); in data set [6] it was 0.0146 µM (≈ 0.0111 µg/mL). For the same compound, the CC50 (as a rule, the concentration that lowers cell viability or growth by half) at 1 day in data set [5] is greater than 13.2 µM.

As to `Cc1cc(N2CCN(c3ccc(C(=O)Nc4ccc(OC(F)F)cc4)cc3)CC2)ccc1OC[C@@H]1CO[C@@](Cn2cncn2)(c2ccc(F)cc2F)C1` [Example 12, 4-(4-(4-(((3R,5R)-5-((1H-1,2,4-triazol-1-yl)methyl)-5-(2,4-difluorophenyl)tetrahydrofuran-3-yl)methoxy)-3-methylphenyl)piperazin-1-yl)-N-(4-difluoromethoxyphenyl)benzamide], the MIC50 in data set [1] turned out to be 0.0973 µM (≈ 0.0711 µg/mL). The MIC in data set [2] amounted to 0.0459 µM (≈ 0.0335 µg/mL); in data set [3], 0.0228 µM (≈ 0.0167 µg/mL); in data set [4], 0.0134 µM (≈ 0.00979 µg/mL); in data set [6], 0.0303 µM (≈ 0.0221 µg/mL). Moreover, the CC50 at 1 day in data set [5] was greater than 13.7 µM.

For the compound `Cc1cc(N2CCN(c3ccc(C(=O)Nc4ccc(C#N)cc4)cc3)CC2)cc(C)c1OC[C@@H]1CO[C@@](Cn2cncn2)(c2ccc(F)cc2F)C1` [Example 11, 4-(4-(4-(((3R, 5R)-5-((1H-1,2,4-triazol-1-yl)methyl)-5-(2,4-difluorophenyl)tetrahydrofuran-3-yl)methoxy)-3,5-dimethylphenyl)piperazin-1-yl)-N-(4-cyanophenyl)benzamide], the MIC50 in data set [1] is 0.284 µM (≈ 0.2 µg/mL). Further, the MIC turned out to be 0.179 µM (≈ 0.126 µg/mL) in data set [2], 0.049 µM (≈ 0.0345 µg/mL) in data set [3], 0.0236 µM (≈ 0.0166 µg/mL) in data set [4] and 0.0529 µM (≈ 0.0372 µg/mL) in data set [6]. The same compound displayed a CC50 at 1 day in data set [5] greater than 14.2 µM.

In the case of `Cc1cc(N2CCN(c3ccc(C(=O)Nc4cc(F)ccc4F)cc3)CC2)ccc1OC[C@@H]1CO[C@@](Cn2cncn2)(c2ccc(F)cc2F)C1` [Example 26, 4-(4-(4-(((3R, 5R)-5-((1H-1,2,4-triazol-1-yl)methyl)-5-(2,4-difluorophenyl)tetrahydrofuran-3-yl)methoxy)-3-methylphenyl)piperazin-1-yl)-N-(2,5-difluorophenyl)benzamide], the MIC50 in data set [1] was greater than 1.43 µM. The MIC stood at 0.126 µM (≈ 0.0883 µg/mL) in data set [2], 0.131 µM (≈ 0.0918 µg/mL) in data set [3], 0.0311 µM (≈ 0.0218 µg/mL) in data set [4] and 0.091 µM (≈ 0.0638 µg/mL) in data set [6]. Also, in data set [5], the CC50 at 1 day was greater than 14.3 µM.

Turning to `Cc1cc(N2CCN(c3ccc(C(=O)Nc4ccc(F)cn4)cc3)CC2)ccc1OC[C@@H]1CO[C@@](Cn2cncn2)(c2ccc(F)cc2F)C1` [Example 6, 4-(4-(4-(((3R,5R)-5-((1H-1,2,4-Triazol-1-yl)Methyl)-5-(2,4-Difluorophenyl)Tetra Hydrofuran-3-yl)Methoxy)-3-Methylphenyl)Piperazin-1-yl)-N-(5-Fluoropyridin-2-yl) Benzamide], the MIC50 in data set [1] was 0.0239 µM (≈ 0.0163 µg/mL). Also, the MIC in data set [2] stood at 0.131 µM (≈ 0.0896 µg/mL); in data set [3] it was 0.0212 µM (≈ 0.0145 µg/mL); in data set [4], 0.0125 µM (≈ 0.00855 µg/mL); in data set [6], 0.0214 µM (≈ 0.0146 µg/mL). The compound also gave a CC50 at 1 day in data set [5] greater than 14.6 µM.

For `Cc1cc(N2CCN(c3ccc(C(=O)Nc4cccc(C#N)c4)cc3)CC2)ccc1OC[C@@H]1CO[C@@](Cn2cncn2)(c2ccc(F)cc2F)C1` [Example 8, 4-(4-(4-(((3R,5R)-5-((1H-1,2,4-triazol-1-yl)methyl)-5-(2,4-difluorophenyl)tetrahydrofuran-3-yl)methoxy)-3-methylphenyl)piperazin-1-yl)-N-(3-cyanophenyl)benzamide], in data set [1], the MIC50 was determined as 0.0142 µM (≈ 0.00979 µg/mL). The MIC is greater than 1.45 µM in data set [2], greater than 1.45 µM in data set [3], 0.0127 µM (≈ 0.00876 µg/mL) in data set [4] and greater than 1.45 µM in data set [6]. The midpoint of cytotoxicity in data set [5], the CC50 at 1 day, lay at 0.548 µM.

`Cc1cc(N2CCN(c3ccc(C(=O)Nc4cc(F)cc(F)c4)cc3)CC2)ccc1OC[C@@H]1CO[C@@](Cn2cncn2)(c2ccc(F)cc2F)C1` [Example 28, 4-(4-(4-(((3R, 5R)-5-((1H-1,2,4-triazol-1-yl)methyl)-5-(2,4-difluorophenyl)tetrahydrofuran-3-yl)methoxy)3-methylphenyl)piperazin-1-yl)-N-(3,5-difluorophenyl)benzamide]: the MIC50 in data set [1] was found to be 0.0117 µM (≈ 0.0082 µg/mL). The MIC is 0.198 µM (≈ 0.139 µg/mL) in data set [2], 0.0266 µM (≈ 0.0186 µg/mL) in data set [3], 0.0319 µM (≈ 0.0224 µg/mL) in data set [4] and 0.0361 µM (≈ 0.0253 µg/mL) in data set [6]. In data set [5], this compound yielded a half-maximal cytotoxic concentration (CC50) at 1 day greater than 14.3 µM.

Take `O=C(Nc1ccc(F)cc1)c1ccc(N2CCN(c3ccc(OCC4CO[C@@](Cn5cncn5)(c5ccc(F)cc5F)C4)c(Cl)c3)CC2)cc1` (stereo in doubt) [Example 18, 4-(4-(4-(((3R,5R)-5-((1H-1,2,4-triazol-1-yl)methyl)-5-(2,4-difluorophenyl)tetrahydrofuran-3-yl)methoxy)-3-chlorophenyl)piperazin-1-yl)-N-(4-fluorophenyl)benzamide]: the MIC50 in data set [1] was determined as 0.0866 µM (≈ 0.0609 µg/mL). Also, the MIC in data set [2] is 0.0733 µM (≈ 0.0515 µg/mL); in data set [3], 0.011 µM (≈ 0.00773 µg/mL); in data set [4], 0.0222 µM (≈ 0.0156 µg/mL); in data set [6], 0.0471 µM (≈ 0.0331 µg/mL). The compound also had a CC50 at 1 day in data set [5] greater than 14.2 µM.

Take `Cc1cc(N2CCN(c3ccc(C(=O)Nc4ccc(F)cc4)cc3)CC2)c(C)cc1OC[C@@H]1CO[C@@](Cn2cncn2)(c2ccc(F)cc2F)C1` [Example 5, 4-(4-(4-(((3R,5R)-5-((1H-1,2,4-Triazol-1-yl)Methyl)-5-(2,4-Difluorophenyl) Tetrahydrofuran-3-yl)Methoxy)-2,5-Dimethylphenyl)Piperazin-1-yl)-N-(4-Fluorophenyl) Benzamide]: the MIC50 in data set [1] was found to be 0.123 µM (≈ 0.0857 µg/mL). Moreover, the MIC in data set [2] came out at 0.162 µM (≈ 0.113 µg/mL); in data set [3], 0.157 µM (≈ 0.109 µg/mL); in data set [4], 0.0133 µM (≈ 0.00927 µg/mL); in data set [6] it was 0.0966 µM (≈ 0.0673 µg/mL). Also, in data set [5], the CC50 at 1 day was greater than 14.4 µM.

Take `Cc1cc(N2CCN(c3ccc(C(=O)Nc4ccc(F)cc4)cc3)CC2)cc(C)c1OC[C@@H]1CO[C@@](Cn2cncn2)(c2ccc(F)cc2F)C1` [Example 15, 4-(4-(4-(((3R,5R)-5-((1H-1,2,4-triazol-1-yl)methyl)-5-(2,4-difluorophenyl)tetrahydrofuran-3-yl)methoxy)-3,5-dimethylphenyl)piperazin-1-yl)-N-(4-fluorophenyl)benzamide]: in data set [1], the MIC50 is 0.00764 µM (≈ 0.00532 µg/mL). For the same compound, the MIC in data set [2] was greater than 1.44 µM; in data set [3], 0.0184 µM (≈ 0.0128 µg/mL); in data set [4], 0.029 µM (≈ 0.0202 µg/mL); in data set [6], 0.00845 µM (≈ 0.00589 µg/mL). In addition, the CC50 at 1 day in data set [5] is greater than 14.4 µM.
